Assays:
Cytochrome P450 2D6 = Cytochrome P450 2D6 (Homo sapiens, UniProt P10635); assay: Inhibition of human recombinant CYP2D6 expressed in insect microsomes; assay type: ADME, Microsome
Cytochrome P450 2C19 = Cytochrome P450 2C19 (Homo sapiens, UniProt P33261); assay: Inhibition of human recombinant CYP2C19 expressed in insect microsomes; assay type: ADME, Microsome
CYP1A2 = target: T1, CYP1A2 (Homo sapiens, UniProt P05177); assay: Inhibition of human recombinant CYP1A2 expressed in insect microsomes at 2 uM; assay type: ADME, Microsome
T1 sequence (P05177 whole entry): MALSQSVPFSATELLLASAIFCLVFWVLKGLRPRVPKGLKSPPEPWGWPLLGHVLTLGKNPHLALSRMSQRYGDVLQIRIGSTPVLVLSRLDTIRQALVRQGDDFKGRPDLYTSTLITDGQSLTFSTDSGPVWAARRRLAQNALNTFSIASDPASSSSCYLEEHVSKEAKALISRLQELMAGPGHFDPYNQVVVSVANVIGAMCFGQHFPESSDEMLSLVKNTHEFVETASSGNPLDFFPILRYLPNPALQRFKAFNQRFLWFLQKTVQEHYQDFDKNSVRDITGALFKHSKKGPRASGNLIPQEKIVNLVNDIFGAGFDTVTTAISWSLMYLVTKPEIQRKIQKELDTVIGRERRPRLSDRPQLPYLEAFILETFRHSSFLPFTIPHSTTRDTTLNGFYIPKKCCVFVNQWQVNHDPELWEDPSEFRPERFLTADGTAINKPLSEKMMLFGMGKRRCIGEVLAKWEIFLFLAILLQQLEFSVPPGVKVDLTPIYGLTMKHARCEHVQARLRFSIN

Cytochrome P450 2B6 = target: T2, Cytochrome P450 2B6 (Homo sapiens, UniProt P20813); assay: Inhibition of human recombinant CYP2B6 expressed in insect microsomes; assay type: ADME, Microsome
T2 sequence (P20813 whole entry): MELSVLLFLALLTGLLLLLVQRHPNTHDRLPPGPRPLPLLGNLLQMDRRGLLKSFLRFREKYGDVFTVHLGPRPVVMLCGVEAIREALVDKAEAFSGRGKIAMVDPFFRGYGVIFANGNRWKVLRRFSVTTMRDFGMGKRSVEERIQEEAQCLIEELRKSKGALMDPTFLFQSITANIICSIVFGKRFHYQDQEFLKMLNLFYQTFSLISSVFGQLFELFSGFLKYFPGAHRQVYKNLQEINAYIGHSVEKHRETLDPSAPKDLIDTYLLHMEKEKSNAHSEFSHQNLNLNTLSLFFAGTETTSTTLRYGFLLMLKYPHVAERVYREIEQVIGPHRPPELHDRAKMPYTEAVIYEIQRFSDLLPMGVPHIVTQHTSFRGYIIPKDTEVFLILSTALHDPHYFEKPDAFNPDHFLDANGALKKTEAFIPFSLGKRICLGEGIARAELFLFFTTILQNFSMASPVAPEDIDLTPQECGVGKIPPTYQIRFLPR

[1] = Plasma concentration in Wistar rat plasma at 5 mg/kg, po after 6 hrs; assay type: ADME, organism-based; set-up: dose 5 mg/kg, route oral
[2] = Plasma concentration in Wistar rat plasma at 5 mg/kg, po after 1 hr; assay type: ADME, organism-based; set-up: dose 5 mg/kg, route oral
[3] = Plasma concentration in Wistar rat plasma at 5 mg/kg, po after 4 hrs; assay type: ADME, organism-based; set-up: dose 5 mg/kg, route oral
[4] = Plasma concentration in Wistar rat plasma at 5 mg/kg, po after 8 hrs; assay type: ADME, organism-based; set-up: dose 5 mg/kg, route oral
Cytochrome P450 3A4 = Cytochrome P450 3A4 (Homo sapiens, UniProt P08684); assay: Inhibition of human recombinant CYP3A4 expressed in insect microsomes; assay type: ADME, Microsome
Cytochrome P450 3A4, sequence (P08684 whole entry): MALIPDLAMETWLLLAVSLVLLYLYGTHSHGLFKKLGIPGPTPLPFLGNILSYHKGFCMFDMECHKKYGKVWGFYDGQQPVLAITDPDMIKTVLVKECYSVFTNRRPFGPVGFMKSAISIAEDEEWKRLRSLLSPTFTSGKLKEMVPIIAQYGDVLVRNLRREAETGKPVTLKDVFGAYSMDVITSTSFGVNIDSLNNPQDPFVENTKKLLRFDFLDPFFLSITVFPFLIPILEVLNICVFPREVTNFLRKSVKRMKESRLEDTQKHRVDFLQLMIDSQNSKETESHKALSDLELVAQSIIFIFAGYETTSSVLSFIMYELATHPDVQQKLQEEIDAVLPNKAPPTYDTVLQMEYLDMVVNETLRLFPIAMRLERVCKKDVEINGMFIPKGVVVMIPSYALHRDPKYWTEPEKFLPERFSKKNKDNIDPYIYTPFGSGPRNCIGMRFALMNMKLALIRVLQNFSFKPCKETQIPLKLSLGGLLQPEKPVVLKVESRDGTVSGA

Cytochrome P450 2C19, sequence (P33261 whole entry): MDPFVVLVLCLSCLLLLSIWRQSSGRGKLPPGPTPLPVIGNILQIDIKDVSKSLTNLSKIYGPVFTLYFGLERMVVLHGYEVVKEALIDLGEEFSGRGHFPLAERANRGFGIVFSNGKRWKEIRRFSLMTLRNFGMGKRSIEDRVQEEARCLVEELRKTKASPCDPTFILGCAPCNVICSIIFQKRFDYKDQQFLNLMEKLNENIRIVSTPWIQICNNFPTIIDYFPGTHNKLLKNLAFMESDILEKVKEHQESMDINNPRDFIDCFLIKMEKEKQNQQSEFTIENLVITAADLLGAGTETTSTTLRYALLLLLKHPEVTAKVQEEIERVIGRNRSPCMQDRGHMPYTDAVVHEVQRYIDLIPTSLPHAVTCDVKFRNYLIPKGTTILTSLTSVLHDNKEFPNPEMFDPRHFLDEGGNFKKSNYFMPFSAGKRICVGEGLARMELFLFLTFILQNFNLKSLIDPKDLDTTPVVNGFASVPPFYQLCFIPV
Cytochrome P450 2D6, sequence (P10635 whole entry): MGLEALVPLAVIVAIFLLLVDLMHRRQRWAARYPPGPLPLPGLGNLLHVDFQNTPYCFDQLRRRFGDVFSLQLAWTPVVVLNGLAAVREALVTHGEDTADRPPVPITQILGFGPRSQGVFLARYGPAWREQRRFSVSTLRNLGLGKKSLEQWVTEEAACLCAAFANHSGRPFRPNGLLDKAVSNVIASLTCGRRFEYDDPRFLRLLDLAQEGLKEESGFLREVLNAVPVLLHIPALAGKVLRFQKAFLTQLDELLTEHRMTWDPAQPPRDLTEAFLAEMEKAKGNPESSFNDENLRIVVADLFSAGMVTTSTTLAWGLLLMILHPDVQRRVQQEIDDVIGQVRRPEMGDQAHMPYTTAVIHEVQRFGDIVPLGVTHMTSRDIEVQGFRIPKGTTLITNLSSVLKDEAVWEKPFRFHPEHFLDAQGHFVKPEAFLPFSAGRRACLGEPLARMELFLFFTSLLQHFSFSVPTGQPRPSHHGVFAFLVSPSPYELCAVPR

For `COc1ccc2cc(-c3cncc4ccccc34)ccc2c1`, the IC50 (Cytochrome P450 2D6) was 33.1 µM, the IC50 (Cytochrome P450 2C19) was 3.54 µM and the inhibition at 2 µM (CYP1A2) was 57%. For the same compound, the IC50 (Cytochrome P450 2B6) was 16.5 µM, the concentration at 6 h [1] was 81.4 ng/mL and the concentration at 1 h [2] was 34.9 ng/mL. The concentration at 4 h [3] was 76.3 ng/mL, the concentration at 8 h [4] was 34.6 ng/mL and the IC50 (Cytochrome P450 3A4) was 3.54 µM.
